Key:
Format in all cases: cell-based
Settings in all cases: 12.5 μg synthesized peptide per 1 mL cell culture medium, 24 h, 37° C.
FBN1 gene = FBN1 gene expression in human fibroblasts (CCD-966SK), qPCR
Experimental: (§1) In order to confirm the effect of each of the amino acid sequences on gene expression in cells, human fibroblasts (CCD-966SK) and individual peptides were co-cultured, and then, gene expression in the cells was analyzed. 11 types of synthesized peptides were respectively subjected to cell experiments. In addition, the amino acid sequences of 11 types of synthesized peptides were respectively SEQ ID NO: 1, SEQ ID NO: 2, SEQ ID NO: 3, SEQ ID NO: 4, SEQ ID NO: 5, SEQ ID NO: 6, SEQ ID NO: 7, SEQ ID NO: 8, SEQ ID NO: 9, SEQ ID NO: 10 and SEQ ID NO: 11. Hereafter, the sequence numbers SEQ ID NO: 1 to SEQ ID NO: 11 will be referred to as groups.
(§2) Cell gene expression test refers to that after the human fibroblasts (purchased from Food Industry Research and Development Institute) and samples to be tested (such as peptides or compositions) were co-cultured, then, RNA in the cells was collected for analysis. Referring to Table 3, the gene expression test groups were divided into 13 groups. 11 groups therein were peptide experiment groups (Experiment group A to Experiment group K), 1 group was a composition experiment group (Experiment group L), and 1 group was a control group. In addition, each group was co-cultured with 1×10^5 human fibroblasts in a cell culture plate containing 2 mL of cell culture medium (X-VIVO™ 10). Experiment group A to Experiment group K respectively corresponded to 11 groups of peptide experiment groups of 11 types of synthesized peptides (SEQ ID NO: 1, SEQ ID NO: 2, SEQ ID NO: 3, SEQ ID NO: 4, SEQ ID NO: 5, SEQ ID NO: 6, SEQ ID NO: 7, SEQ ID NO: 8, SEQ ID NO: 9, SEQ ID NO: 10 and SEQ ID NO: 11) prepared according to Example III. Experiment group L was a composition experiment group added with the composition. In addition, the composition was identified in Example II to be tilapia fish skin collagen peptide powder (purchased from LAPI, Italy) including […] of peptides (i.e., SEQ ID NO: 1, SEQ ID NO: 2, SEQ ID NO: 3, SEQ ID NO: 4, SEQ ID NO: 5 and SEQ ID NO: 6). No peptide or composition was added in Control group.
(§3) For each group of peptide experiment groups (corresponding to Experiment group A to Experiment group K), according to a proportion of 12.5 μg of synthesized peptide per 1 mL of cell culture medium, the human fibroblasts were cultured for 24 h at 37° C. For the composition experiment group (corresponding to Experiment group L), according to a proportion of 100 mg of composition per 1 mL of cell culture medium, the human fibroblasts were cultured for 24 h. For Control group, no peptide was added, and the human fibroblasts were cultured for 24 h in a pure cell culture medium. In addition, after culture for 24 h, the peptide-containing cell culture medium or the pure culture medium was removed from each group, and cells in each group were washed by a phosphate buffer solution (PBS) so as to remove the residual culture medium. The washed cells were spun down and were subjected to cell lysis by a cell lysis solution (purchased from Geneaid company, Taiwan). Then, RNA in each group of cells was extracted by an RNA extraction kit (purchased from Geneaid company, Taiwan). Next, the extracted RNA was subjected to inverse transcription to obtain cDNA by a cDNA synthesis reagent (purchased from Geneaid company, Taiwan). In addition, the intracellular gene expression was observed by a polymerase chain reaction (PCR) instrument using different primers (as shown in Table 3). In addition, the primers firstly reacted by a green fluorescent dye of SYBR green dye (Applied Biosystem), and quantification of gene expression was performed by a 2-ΔΔCt method. It should be noted that the gene expression in the drawings corresponding to the experiments was shown in relative fold or percentage, wherein standard deviations were calculated by an STDEV formula of Excel software, and statistically significant differences were analyzed by one-tailed student t-test in the Excel software. […]

LOX gene = LOX gene expression in human fibroblasts (CCD-966SK), qPCR
Experimental: as §1
as §2, with “No peptide or composition was added in Control group.” left out
(§4) For each group of peptide experiment groups (corresponding to Experiment group A to Experiment group K), according to a proportion of 12.5 μg of synthesized peptide per 1 mL of cell culture medium, the human fibroblasts were cultured for 24 h at 37° C. […] In addition, the primers firstly reacted by a green fluorescent dye of SYBR green dye (Applied Biosystem), and quantification of gene expression was performed by a 2-ΔΔCt method. It should be noted that the gene expression in the drawings corresponding to the experiments was shown in relative fold or percentage, wherein standard deviations were calculated by an STDEV formula of Excel software, and statistically significant differences were analyzed by one-tailed student t-test in the Excel software. […]

TIMP1 gene = TIMP1 gene expression in human fibroblasts (CCD-966SK), qPCR
Experimental: as §1, §2
as §3, with “The washed cells were spun down and were subjected to cell lysis by a cell lysis solution (purchased from Geneaid company, Taiwan). Then, RNA in each group of cells was extracted by an RNA extraction kit (purchased from Geneaid company, Taiwan). Next, the extracted RNA was subjected to inverse transcription to obtain cDNA by a cDNA synthesis reagent (purchased from Geneaid company, Taiwan). In addition, the intracellular gene expression was observed by a polymerase chain reaction (PCR) instrument using different primers (as shown in Table 3).” left out

MMP2 gene = MMP2 gene expression in human fibroblasts (CCD-966SK), qPCR
Experimental: as §1, with “groups. […]” for “groups.”
as §4

Substance | FBN1 gene expression level, folds of Control group (FBN1 gene) | LOX gene expression level, folds of Control group (LOX gene) | TIMP1 gene expression level, folds of Control group (TIMP1 gene) | MMP2 gene expression inhibition (MMP2 gene) | MMP2 gene expression percentage (Control group regarded as 100%) (MMP2 gene)
AVNGLTLAGGRGLNTGAALT (listed as Oreochromis mossambicus) [SEQ ID NO: 5, synthesized peptide of tilapia skin, Collagen, type VI] | about 6 folds | about 2.5 folds | – | – | –
MFGKDVW (listed as Oreochromis mossambicus) [SEQ ID NO: 9, synthesized peptide of N-acetylglucosamine-1-phosphotransferase subunits alpha/beta] | about 4 folds | about 2.5 folds | about 3 folds | – | –
DQGIRLL (listed as Oreochromis mossambicus) [SEQ ID NO: 10, synthesized peptide of Plectin b] | about 6 folds | – | – | – | –
IGIFGQTGPPGE (listed as Oreochromis mossambicus) [SEQ ID NO: 3, synthesized peptide of tilapia skin, Collagen, type IV] | about 3 folds | – | – | about 60% | about 40%
QRGEPGPNGAV (listed as Oreochromis mossambicus) [SEQ ID NO: 11, synthesized peptide of tilapia skin, Procollagen, type I] | about 5 folds | about 3 folds | about 5 folds | – | –
PGQPGLSGVPGADGKPGLPGP (listed as Oreochromis mossambicus) [SEQ ID NO: 8, synthesized peptide of tilapia skin, Collagen, type XVIII] | about 9 folds | – | about 5 folds | – | –
NGLPGSPGLP GRQGE (NGLPGSPGLPGRQGE; listed as Oreochromis mossambicus) [SEQ ID NO: 7, synthesized peptide of tilapia skin, Collagen, type XII] | about 5 folds | – | – | – | –
PGPMGPMGINGA (listed as Oreochromis mossambicus) [SEQ ID NO: 4, synthesized peptide of tilapia skin, Collagen, type V] | about 16 folds | – | – | – | –
GLPGVQGNI (listed as Oreochromis mossambicus) [SEQ ID NO: 2, synthesized peptide of tilapia skin, Collagen, type IV] | about 6 folds | about 5.7 folds | about 7.8 folds | – | –
ALVQNREGP (listed as Oreochromis mossambicus) [SEQ ID NO: 6, synthesized peptide of tilapia skin, Collagen, type VII] | about 5 folds | – | about 3 folds | – | –

Source: patent US11400138B2, “Method for improving skin condition with bioactive compound” (TCI CO., LTD., priority 2020, dated 2022)
